Several values for one entry are separate records, joined by “and”; a condition that tells them apart may be missing. Equal values may be shown once. Read-outs that look alike come from different tables or passages of the source. Marks after values point to notes of the source that are not given here.
Experiments:
T47D = assay: In vivo efficacy, T47D breast cancer model; parameters: species or system mice; conditions: Day 41, 150 mg/kg BID PO
Description: The T47D model was established by implanting passage 3 tumor fragments into recipient mice. To establish the T47D donor mice, tumor cells (5×10^6 cell/mouse with 50% Cultrex® Basement Membrane Matrix) were subcutaneously implanted in female NSG mice. […] All mice received treatment continuously until Day 41. TGI was assessed on Day 41 post first dose.

[1] = Phase 1/2a study, plasma pharmacokinetics of PF-07104091; type: in vivo, human
Excerpt: Blood samples will be collected for measurement of plasma concentrations of PF-07104091 as specified in the protocol. Samples will be used to evaluate the PK of PF-07104091. Samples collected for analyses of PF-07104091 plasma concentration may also be used to evaluate safety or efficacy aspects related to concerns arising during or after the study, for metabolite identification and/or evaluation of the bioanalytical method, or for other internal exploratory purposes.
Plasma PF-07104091 concentrations will be summarized descriptively (n, mean, standard deviation, coefficient of variation, median, minimum, maximum, geometric mean and its associated coefficient of variation) by dose, cycle, day and nominal time. Individual participant plasma PF-07104091 concentration-time data within a dose interval (with exception of the food effect substudy) after Cycle 1 Day 1 and Cycle 1 Day 15 will be analyzed using noncompartmental methods to determine single and multiple dose PK parameters. For participants in the food effect substudy, individual plasma PF-07104091 concentration-time data after Cycle 1 Day 15 and Cycle 1 Day 16 will be analyzed using noncompartmental methods to determine multiple dose PK parameters. For Part 1 of the study, single dose PK parameters to be estimated will include the Cmax, Tmax, and AUClast, and if data permit, t1/2, CL/F, and Vz/F. Multiple dose PK parameters to be estimated will include Cmax,ss, Tmax,ss, AUCT,ss, Cmin,ss, CL/F,ss, and if data permit, V/Fss, t1/2, and Rac. For Part 2 of the study (with exception of the food effect substudy), single dose PK parameters to be estimated will include Cmax, Tmax and AUClast. Multiple dose PK parameters to be estimated will include Cmax,ss, Tmax,ss, AUClast, Cmin,ss, and Rac. The single dose and steady state PK parameters will be summarized descriptively (n, mean, standard deviation, coefficient of variation, median, minimum, maximum, geometric mean and its associated coefficient of variation) by dose level, cycle and day. For participants in the food effect substudy, multiple dose PK parameters to be estimated will include Cmax,ss, AUCT,ss, Tmax,ss, Cmin,ss, CL/Fss, and if data permit, V/Fss and t1/2.
An ongoing Phase 1/2a, open-label, multicenter, multiple dose study is being conducted to determine the safety, tolerability, PK, PD, and preliminary anti-tumor activity of PF-07104091 as a single agent and in combination with endocrine therapy. PF-07104091 is administered orally twice daily (BID) during 28-day cycles.
Preliminary concentration-time data of PF-07104091 following single and multiple oral administration at 75 mg BID to 500 mg BID as monotherapy or in combination with endocrine therapy alone or in combination with palbociclib and endocrine therapy were available from 44 participants with advanced solid tumors and HR-positive HER2-negative advanced or metastatic breast cancer. The preliminary concentration-time data were analyzed by noncompartmental approach using actual PK sampling times.
[…] Individual values are listed when the number of participants with available parameters is less than 3.

[2] = Cycle 1 Day 1, single oral dose, 375 mg BID monotherapy, individual values
[3] = Cycle 1 Day 15, repeated BID oral, 75 mg BID monotherapy, individual values

## COCc1cc(C(=O)Nc2cc([C@H]3CC[C@@H](OC(=O)NC(C)C)C3)[nH]n2)n(C)n1 [PF-07104091, (1R,3S)-3-[3-({[3-(methoxymethyl)-1-methyl-1H-pyrazol-5-yl]carbonyl}amino)-1H-pyrazol-5-yl]cyclopentyl propan-2-ylcarbamate]
T47D
  TGI %: 82* %
[1]; [2]
  AUClast: 14424 ng·h/mL
  Cmax: 2890 ng/mL
  Tmax: 4.0, 4.0 h
[1]; Cycle 1 Day 15, repeated BID oral, 75 mg BID (1B), with palbociclib and fulvestrant, arithmetic mean ± SD
  Rac: 1.2 ± 0.1
[1]; [3]
  AUClast: 2321, ng*h/mL
  Cmax: 398, ng/mL
  Rac: 1.4 and 2.7
[1]; Cycle 1 Day 15, repeated BID oral, 150 mg BID monotherapy, arithmetic mean ± SD
  Rac: 1.8 ± 0.2
[1]; Cycle 1 Day 15, repeated BID oral, 225 mg BID monotherapy, arithmetic mean ± SD
  Rac: 1.8 ± 0.7
[1]; Cycle 1 Day 15, repeated BID oral, 300 mg BID monotherapy, arithmetic mean ± SD
  Rac: 1.9 ± 1.1
[1]; Cycle 1 Day 15, repeated BID oral, 500 mg BID monotherapy, individual value, N = 1
  Rac: 1.1
[1]; following repeated BID administration
  accumulation: moderate accumulation
[1]; human, plasma, po, 75 mg BID to 500 mg BID, read-out: average half-life (converted)
  half-life: ~2 h
[1]; human, plasma, po, 75 mg, Cycle 1 Day 1, single oral dose, 75 mg BID (1B), with palbociclib and fulvestrant, arithmetic mean ± SD, read-out: t1/2 (converted)
  half-life: 1.9 ± 0.2 h
[1]; human, plasma, po, 75 mg, Cycle 1 Day 1, single oral dose, 75 mg BID (1B), with palbociclib and fulvestrant, geometric mean (CV %)
  AUC(0-t): 2.76 µg·h/mL
[1]; human, plasma, po, 75 mg, Cycle 1 Day 1, single oral dose, 75 mg BID (1B), with palbociclib and fulvestrant, geometric mean (CV %), read-out: Cmax
  Cmax: 694 ng/mL
[1]; human, plasma, po, 75 mg, Cycle 1 Day 1, single oral dose, 75 mg BID (1B), with palbociclib and fulvestrant, median (range), read-out: Tmax
  Tmax: 1.6 h
[1]; human, plasma, po, 75 mg, Cycle 1 Day 1, single oral dose, 75 mg BID (1C), with palbociclib and letrozole, arithmetic mean ± SD, read-out: t1/2 (converted)
  half-life: 1.6 ± 0.5 h
[1]; human, plasma, po, 75 mg, Cycle 1 Day 1, single oral dose, 75 mg BID (1C), with palbociclib and letrozole, geometric mean (CV %)
  AUC(0-t): 2.46 µg·h/mL
[1]; human, plasma, po, 75 mg, Cycle 1 Day 1, single oral dose, 75 mg BID (1C), with palbociclib and letrozole, geometric mean (CV %), read-out: Cmax
  Cmax: 648 ng/mL
[1]; human, plasma, po, 75 mg, Cycle 1 Day 1, single oral dose, 75 mg BID (1C), with palbociclib and letrozole, median (range), read-out: Tmax
  Tmax: 0.5 h
[1]; human, plasma, po, 75 mg, Cycle 1 Day 1, single oral dose, 75 mg BID monotherapy, arithmetic mean ± SD, read-out: t1/2 (converted)
  half-life: 2.4 ± 0.7 h
[1]; human, plasma, po, 75 mg, Cycle 1 Day 1, single oral dose, 75 mg BID monotherapy, geometric mean (CV %)
  AUC(0-t): 1.75 µg·h/mL
[1]; human, plasma, po, 75 mg, Cycle 1 Day 1, single oral dose, 75 mg BID monotherapy, geometric mean (CV %), read-out: Cmax
  Cmax: 362 ng/mL
[1]; human, plasma, po, 75 mg, Cycle 1 Day 1, single oral dose, 75 mg BID monotherapy, median (range), read-out: Tmax
  Tmax: 2 h
[1]; human, plasma, po, 75 mg, Cycle 1 Day 15, repeated BID oral, 75 mg BID (1B), with palbociclib and fulvestrant, arithmetic mean ± SD, read-out: t1/2 (converted)
  half-life: 3.6 ± 0.9 h
[1]; human, plasma, po, 75 mg, Cycle 1 Day 15, repeated BID oral, 75 mg BID (1B), with palbociclib and fulvestrant, geometric mean (CV %)
  AUC(0-t): 3.08 µg·h/mL
[1]; human, plasma, po, 75 mg, Cycle 1 Day 15, repeated BID oral, 75 mg BID (1B), with palbociclib and fulvestrant, geometric mean (CV %), read-out: Cmax
  Cmax: 698 ng/mL
[1]; human, plasma, po, 75 mg, Cycle 1 Day 15, repeated BID oral, 75 mg BID (1B), with palbociclib and fulvestrant, median (range), read-out: Tmax
  Tmax: 1.2 h
[1]; human, plasma, po, 75 mg, Cycle 1 Day 15, repeated BID oral, 75 mg BID monotherapy, individual values
  AUC(0-t): 3.58 µg·h/mL
[1]; human, plasma, po, 75 mg, Cycle 1 Day 15, repeated BID oral, 75 mg BID monotherapy, individual values, read-out: Cmax
  Cmax: 714 ng/mL
[1]; human, plasma, po, 75 mg, Cycle 1 Day 15, repeated BID oral, 75 mg BID monotherapy, individual values, read-out: Tmax
  Tmax: 1.1 h
[1]; human, plasma, po, 150 mg, Cycle 1 Day 1, single oral dose, 150 mg BID monotherapy, geometric mean (CV %)
  AUC(0-t): 4.48 µg·h/mL

Reference: US20250127759A1, “METHODS AND DOSING REGIMENS COMPRISING A CDK2 INHIBITOR FOR THE TREATMENT OF CANCER” (PFIZER INC., priority 2021, published 2025)
